Measurements from patent US20190374557A1, “Cyclobutyl (S)-2-[[[(R)-2-(6-aminopurin-9-yl)-1-methyl-ethoxy]methyl-phenoxy-phosphoryl]amino]-propanoates, and production process and application thereof” (ALLA CHEM, LLC, priority 2017, published 2019).

How the values were obtained:
in vitro = settings: human, uninfected SupT1 cells (T-lymphocyte line)
[1] = system: HIV strain NL4.3 carrying a gene encoding the green fluorescent protein (NL4.3-GFP); settings: SupT1 cells
[2] = system: HIV strain NL4.3 carrying a gene encoding the green fluorescent protein (NL4.3-GFP); experiment: microbe, parasite or virus in culture; settings: Human immunodeficiency virus 1, SUP-T1, 45 h, read-out: Activity (EC50)

## CC(C)OC(=O)[C@H](C)N[P@](=O)(CO[C@H](C)Cn1cnc2c(N)ncnc21)Oc1ccccc1 [TAF, tenofovir alafenamide]
In vitro
  CC50: > 100000 nM
[1]
  selectivity index SI = CC50/EC50: 2857
[2]
  EC50: 35 nM
